The record followed here is ChEMBL document CHEMBL1150724, “In vitro antiviral activity of dammar resin triterpenoids” (J Nat Prod, 1987).

Converted amounts (≈) assume the structure as drawn.

The term IC50 denotes the midpoint of a concentration-inhibition curve.

The subject of one assay is Human alphaherpesvirus 2. The experiment in a line: Antiviral activity against HSV2 MS replication infected in african green monkey Vero cells assessed as inhibition of virus-induced cytopathic effect after 48 hrs. The assay is classed as functional, organism-based. The note with it: Human alphaherpesvirus 2, MS. (In general: Protection from cytopathic effect is a common read-out in antiviral testing.)

Another assay relates to Human alphaherpesvirus 1. The experiment in a line: Antiviral activity against HSV1 MacIntyre replication in african green monkey Vero cells assessed as inhibition of virus-induced cytopathic effect after 48 hrs. The note with it: Human alphaherpesvirus 1, MacIntyre. The assay is classed as functional, organism-based.

For the molecule `CC1(C)CC[C@@]23CC[C@]4(C)[C@@](OC2=O)([C@@H]3C1)[C@@H](O)C[C@@H]1[C@@]2(C)CCC(=O)C(C)(C)[C@@H]2CC[C@]14C`, the IC50 with Human alphaherpesvirus 2 and in the assay with Human alphaherpesvirus 1 was 5 µg/mL (≈ 10.6 µM) each time.
With `CC(C)=CCC[C@@](C)(O)[C@H]1CC[C@]2(C)[C@@H]1CC[C@@H]1[C@@]3(C)CCC(=O)C(C)(C)[C@@H]3CC[C@]12C`, the figures for the IC50 in the assay on Human alphaherpesvirus 2 and in the assay with Human alphaherpesvirus 1 were 5 µg/mL (≈ 11.3 µM) and 2 µg/mL (≈ 4.52 µM), respectively.
The corresponding values for `CC(C)=CCC[C@](C)(O)[C@H]1CC[C@]2(C)[C@@H]1CC[C@@H]1[C@@]3(C)CC[C@H](O)C(C)(C)[C@@H]3CC[C@]12C` are 7 µg/mL (≈ 15.7 µM) and 7 µg/mL (≈ 15.7 µM).
Turning to `C=C(CCC=C(C)C)[C@H]1CC[C@]2(C)[C@@H]1CC[C@@H]1[C@@]3(C)CC[C@H](O)C(C)(C)[C@@H]3CC[C@]12C` [DAMMARADIENOL], the results for the IC50 with Human alphaherpesvirus 2 and in the assay on Human alphaherpesvirus 1 were 3 µg/mL (≈ 7.03 µM) and 2.5 µg/mL (≈ 5.86 µM), respectively.
On to `C=C(C)[C@@H]1CC[C@]2(C)[C@H](CC[C@@H]3[C@@H]([C@@](C)(O)CCC=C(C)C)CC[C@]32C)[C@@]1(C)CCC(=O)O` [DAMMARENOLIC ACID], for which the figures for the IC50 with Human alphaherpesvirus 2 and in the assay with Human alphaherpesvirus 1 were 2 µg/mL (≈ 4.36 µM) and 3 µg/mL (≈ 6.54 µM), respectively.
For the molecule `C=C(C)[C@@H]1CC[C@]2(C)[C@H](CC[C@@H]3[C@@H]([C@]4(C)CC[C@@H](C(C)(C)O)O4)CC[C@]32C)[C@@]1(C)CCC(=O)O` [EICHLERIANIC ACID], the IC50 was found to be 8 µg/mL (≈ 16.9 µM) in the assay on Human alphaherpesvirus 2 and 7 µg/mL (≈ 14.7 µM) in the assay with Human alphaherpesvirus 1.
The corresponding values for `CC(C)(O)[C@H]1CC[C@@]2(C)C1CC[C@]1(C)[C@@H]2CC[C@@H]2[C@@]3(C)CCC(=O)C(C)(C)[C@@H]3CC[C@]21C` (stereo partly drawn) [HYDROXYHOPANONE] are 5 µg/mL (≈ 11.3 µM) and 7 µg/mL (≈ 15.8 µM).
Consider `C=C(C)[C@@H]1CC[C@]2(C)[C@H](CC[C@@H]3[C@@H]([C@]4(C)CC[C@H](C(C)(C)O)O4)CC[C@]32C)[C@@]1(C)CCC(=O)O` [SHOREIC ACID], for which the IC50 in the assay on Human alphaherpesvirus 2 is 8 µg/mL (≈ 16.9 µM); in the assay with Human alphaherpesvirus 1 it was 7 µg/mL (≈ 14.7 µM).
The corresponding values for `C[C@H]1[C@H](C)CC[C@]2(C(=O)O)CC[C@]3(C)C(=CC[C@@H]4[C@@]5(C)CCC(=O)C(C)(C)[C@@H]5CC[C@]43C)[C@H]12` [URSONIC ACID] are 8 µg/mL (≈ 17.6 µM) and 2.5 µg/mL (≈ 5.5 µM).
